Values of other authors, collected in patent US20050209551A1, “Detoxification and breast health preparations” (priority 2004, published 2005).

Legend:
[1] = tested on: precancerous lesions of the cervix and laryngeal papillomas; settings: pathologies with a human papillomavirus (HPV); reported
[2] = oral administration

| fraction of EDTA absorbed when administered by mouth ([2]; general consensus) | unabsorbed EDTA that remains within the digestive tract ([2]; reported) | SMILES | clinical effectiveness in treating precancerous lesions of the cervix and laryngeal papillomas [1] |
| --- | --- | --- | --- |
| – | – | c1ccc2c(Cc3c[nH]c4ccccc34)c[nH]c2c1 [DIM, 3,3′-diindolylmethane] | clinically effective |
| about five | 95% | O=C(O)CN(CCN(CC(=O)O)CC(=O)O)CC(=O)O [EDTA, ethylene-diaminetetraacetic acid] | – |
| – | – | OCc1c[nH]c2ccccc12 [Example I3C, indole-3-carbinol] | clinically effective |
